Legend:
[1] = test system: C57BL/6J mice; conditions: range over Table 1 and an earlier study; ref Glatfelter et al. ([2024b]); cited from earlier work
[2] = test system: C57BL/6J mice; test: Body temperature change in mice; format: in vivo, mouse; conditions: for Body Temp Δ (°C) Mean: post 30 min session
Method: All mice were injected s.c. with temperature transponders (14 × 2 mm, model IPTT-300, Avidity Science, Waterford Wisconsin, USA) under brief isoflurane immobilization, and were given at least 1 week to recover (Glatfelter et al. [2022b]). Mice were single housed post-implant, and for the duration of the experiments, to protect their devices from being removed by cage mates. Temperature was measured noninvasively using a handheld reader which is sensitive to the transponder signals.
At 1–2 weeks prior to the beginning of experiments, mice were habituated to handling and receiving s.c. saline injections. On the day of an experiment, mice were acclimated to the testing room in their home cage for at least 30 min prior to the start of sessions. Prior to each session, mice were weighed, and resting body temperatures were recorded. Mice were then placed into experimental chambers for acclimation. Behavioral testing was carried out in TruScan mouse locomotor arenas equipped with photobeam arrays (Coulbourn Instruments, Holliston, MA, USA) that were modified with cylindrical inserts and transparent flooring to aid in semi-automated HTR detection as previously described (Glatfelter et al. [2022a]). After 5 min of acclimation, basal body temperature was recorded followed by s.c. injection of drug or vehicle, and mice were returned to test chambers for 30 min. Dose ranges for each drug were 0.03–10 mg/kg for DOI, 0.03–10 mg/kg for psilocybin, and 0.003–1 mg/kg for LSD. Mice were randomly assigned to specific doses at the beginning of the experiment and received different doses at each session.
During each session, locomotor activity was quantified via photobeam tracking of distance traveled in cm. Overhead GoPro Hero Black 7 video recordings (120 fps, 960p resolution) were analyzed using a commercially available software package from Clever Sys Inc. (Reston, VA, USA) for the measurement of HTR activity. Mouse body temperature was also collected post-session to calculate temperature change values (basal - post session temperature reading).
Concentration-response data were fit to a single site non-linear regression model. For the HTR studies, potencies were determined from the ascending limb of the dose-response curves using ED50 potency values from [agonist] vs. response (variable slope, four parameter) least squares fit non-linear regression analyses, whereas efficacy was defined by the top output parameter or Emax from the aforementioned analyses. […] Best-fit values for ED50 and Emax from non-linear regression analyses were compared by extra sum-of-squares F tests. Mean effects for each behavioral endpoint were compared using two-way ANOVA (dose x sex), followed by Sidak’s multiple comparisons post-hoc test. Mean effects for pooled mouse behavioral data were compared via Welch’s ANOVA with Dunnett’s T3 post-hoc test, comparing all doses to saline vehicle controls (0 mg/kg). Alpha was set to 0.05 for all analyses.

Compound | Body Temp Δ (°C) Mean ([2]; 0.03 mg/kg s.c., female mice) [°C] | Body Temp Δ (°C) Mean ([2]; 0.03 mg/kg s.c., male mice) [°C] | Body Temp Δ (°C) Mean ([2]; 0.03 mg/kg s.c., pooled sexes) [°C] | Body Temp Δ (°C) Mean ([2]; 0.1 mg/kg s.c., female mice) [°C] | Body Temp Δ (°C) Mean ([2]; 0.1 mg/kg s.c., male mice) [°C] | Body Temp Δ (°C) Mean ([2]; 0.1 mg/kg s.c., pooled sexes) [°C] | Body Temp Δ (°C) Mean ([2]; 0.3 mg/kg s.c., female mice) [°C] | Body Temp Δ (°C) Mean ([2]; 0.3 mg/kg s.c., male mice) [°C] | Body Temp Δ (°C) Mean ([2]; 0.3 mg/kg s.c., pooled sexes) [°C] | Body Temp Δ (°C) Mean ([2]; 1 mg/kg s.c., female mice) [°C] | Body Temp Δ (°C) Mean ([2]; 1 mg/kg s.c., male mice) [°C] | Body Temp Δ (°C) Mean ([2]; 1 mg/kg s.c., pooled sexes) [°C] | other results
CCN(CC)C(=O)[C@@H]1C=C2c3cccc4[nH]cc(c34)C[C@H]2N(C)C1 [LSD, lysergic acid diethylamide] | -0.1 | 0.0 | -0.1 | -0.3 | -0.1 | -0.2 | -0.4 | -0.1 | -0.2 | -0.9 | -1.5 | -1.2 | s.c. ED50 doses for inducing HTR in mice [1]: 0.035 to 0.039 mg/kg; Body Temp Δ (°C) Mean ([2]; 0.003 mg/kg s.c., female mice): -0.1 °C; Body Temp Δ (°C) Mean ([2]; 0.003 mg/kg s.c., male mice): -0.1 °C; Body Temp Δ (°C) Mean ([2]; 0.003 mg/kg s.c., pooled sexes): -0.1 °C; Body Temp Δ (°C) Mean ([2]; 0.01 mg/kg s.c., female mice): -0.1 °C; Body Temp Δ (°C) Mean ([2]; 0.01 mg/kg s.c., male mice): 0.3 °C; Body Temp Δ (°C) Mean ([2]; 0.01 mg/kg s.c., pooled sexes): 0.1 °C; Body temperature effect at highest dose ([2]; 1 mg/kg s.c.): mild hypothermia
COc1cc(CC(C)N)c(OC)cc1I (stereo not drawn) [DOI, 2,5-dimethoxy-4-iodoamphetamine] | 0.0 | 0.2 | 0.1 | 0.2 | 0.3 | -0.1 | 0.2 | 0.6 | 0.2 | -0.3 | -0.1 | 0.4 | Body Temp Δ (°C) Mean ([2]; 3 mg/kg s.c., female mice): -0.3 °C; Body Temp Δ (°C) Mean ([2]; 3 mg/kg s.c., male mice): -0.1 °C; Body Temp Δ (°C) Mean ([2]; 3 mg/kg s.c., pooled sexes): -0.2 °C; Body Temp Δ (°C) Mean ([2]; 10 mg/kg s.c., female mice): -0.4 °C; Body Temp Δ (°C) Mean ([2]; 10 mg/kg s.c., male mice): -0.9 °C; Body Temp Δ (°C) Mean ([2]; 10 mg/kg s.c., pooled sexes): -0.6 °C; Body temperature vs. vehicle controls ([2]; 0.03-10 mg/kg s.c., both sexes): did not change body temperature

Reference: article PMC12449377, “Psychedelic-like effects induced by 2,5-dimethoxy-4-iodoamphetamine, lysergic acid diethylamide, and psilocybin in male and female C57BL/6J mice” (Psychopharmacology, 2025)
